Experimental data reported in patent US20110092367A1, “Herbicidal Compositions Comprising 4-amino-3,6-dichloropyridine-2-carboxylic Acid” (BASF SE, priority 2008, published 2011).

How the values were obtained:
Format in all cases: in vivo
oilseed rape = experiment: Field trial Example 1, successive application: phytotoxicity (PHYTOX) on oilseed rape crop; details: for PHYTOX (damage on the oilseed rape crop): DAT 205/DALT 190
Text: (§1) Aminiopyralid was used as commercial aquaeous solution having an active ingredient concentration of 240 g/l (Milestone™). Metazachlor was used as a commercial suspension concentrate having an active ingredient concentration of 500 g/l (Butisan S®).
(§2) The performance of aminopyralid applied as an alone treatment at 15, 30 and 50 g a.i./ha applied as an early post emergence treatment and an post emergence treatment in comparison to two different applications including metazachlor at 500 g a.i./ha as an early post emergence application in succession of aminopyralid as a post emergence application at 15 and 30 g a.i./ha was assessed in an oilseed rape field trials.
(§3) The early post emergence treatment was applied by means of fine distributed nozzles at the growth stage (GS) of the crop BBCH 11-12.
(§4) The post emergence treatment was applied by means of fine distributed nozzles at the growth stage (GS) of the crop BBCH 13-14.
(§5) The test period extended over the autumn and spring season (205 days).
(§6) In the following experiments, the herbicidal activity for the individual herbicide compounds (solo application) and of the herbicidal succession was assessed 4 times:
The evaluation for the damage on the oilseed rape crop, the plant injury or phytotoxicity (PHYTOX) caused by the chemical compositions was carried out using a scale from 0 to 100%, compared to the untreated control plants. Here, 0 means no damage and 100 means high injury of the plants.

Galium aparine = experiment: Field trial Example 1, successive application: damage on GALAP
Text: as §1, §2, §3, §4, §5, §6
(§7) The evaluation for the damage on undesired weeds caused by the chemical compositions was carried out using a scale from 0 to 100%, compared to the untreated control plants. Here, 0 means no damage and 100 means complete destruction of the plants.

Papaver rhoeas = experiment: Field trial Example 1, successive application: damage on PAPRH
Text: as §1, §2, §3, §4, §5, §6, §7

Sissimbrium officinale = experiment: Field trial Example 1, successive application: damage on SSYOF
Text: as §1, §2, §3, §4, §5, §6, §7

Sinapis alba = experiment: Field trial Example 1, successive application: damage on SINAL; details: DAT 25/DALT 10
Text: as §1, §2, §3, §4, §5, §6, §7

Alopecurus myosuroides = experiment: Field trial Example 1, successive application: damage on ALOMY
Text: as §1, §2, §3, §4, §5, §6, §7

[1] = 15 g ai/ha, treatment A early post emergence, DAT 25/DALT 10
[2] = 15 g ai/ha, treatment A early post emergence, DAT 65/DALT 50
[3] = 15 g ai/ha, treatment A early post emergence, DAT 176/DALT 161
[4] = 15 g ai/ha, treatment B post emergence, DAT 25/DALT 10
[5] = 15 g ai/ha, treatment B post emergence, DAT 65/DALT 50
[6] = 15 g ai/ha, treatment B post emergence, DAT 176/DALT 161
[7] = 30 g ai/ha, treatment A early post emergence, DAT 25/DALT 10
[8] = 30 g ai/ha, treatment A early post emergence, DAT 65/DALT 50
[9] = 30 g ai/ha, treatment A early post emergence, DAT 176/DALT 161
[10] = 30 g ai/ha, treatment B post emergence, DAT 25/DALT 10
[11] = 30 g ai/ha, treatment B post emergence, DAT 65/DALT 50
[12] = 30 g ai/ha, treatment B post emergence, DAT 176/DALT 161
[13] = 50 g ai/ha, treatment A early post emergence, DAT 25/DALT 10
[14] = 50 g ai/ha, treatment A early post emergence, DAT 65/DALT 50
[15] = 50 g ai/ha, treatment A early post emergence, DAT 176/DALT 161
[16] = 50 g ai/ha, treatment B post emergence, DAT 25/DALT 10
[17] = 50 g ai/ha, treatment B post emergence, DAT 65/DALT 50
[18] = 50 g ai/ha, treatment B post emergence, DAT 176/DALT 161
[19] = aminopyralid 15 g ai/ha, treatment A, DAT 205/DALT 190
[20] = aminopyralid 15 g ai/ha, treatment B, DAT 205/DALT 190
[21] = aminopyralid 30 g ai/ha, treatment A, DAT 205/DALT 190
[22] = aminopyralid 30 g ai/ha, treatment B, DAT 205/DALT 190
[23] = aminopyralid 50 g ai/ha, treatment A, DAT 205/DALT 190
[24] = aminopyralid 50 g ai/ha, treatment B, DAT 205/DALT 190

## Nc1cc(Cl)nc(C(=O)O)c1Cl [aminopyralid, 4-amino-3,6-dichloropyridine-2-carboxylic acid]
Oilseed rape; [1]
  PHYTOX (damage on oilseed rape crop): 11%
Oilseed rape; [2]
  PHYTOX (damage on oilseed rape crop): 3%
Oilseed rape; [3]
  PHYTOX (damage on oilseed rape crop): 2%
Oilseed rape; [4]
  PHYTOX (damage on oilseed rape crop): 0%
Oilseed rape; [5]
  PHYTOX (damage on oilseed rape crop): 0%
Oilseed rape; [6]
  PHYTOX (damage on oilseed rape crop): 0%
Oilseed rape; [7]
  PHYTOX (damage on oilseed rape crop): 27%
Oilseed rape; [8]
  PHYTOX (damage on oilseed rape crop): 30%
Oilseed rape; [9]
  PHYTOX (damage on oilseed rape crop): 0%
Oilseed rape; [10]
  PHYTOX (damage on oilseed rape crop): 0%
Oilseed rape; [11]
  PHYTOX (damage on oilseed rape crop): 0%
Oilseed rape; [12]
  PHYTOX (damage on oilseed rape crop): 0%
Oilseed rape; [13]
  PHYTOX (damage on oilseed rape crop): 40%
Oilseed rape; [14]
  PHYTOX (damage on oilseed rape crop): 50%
Oilseed rape; [15]
  PHYTOX (damage on oilseed rape crop): 0%
Oilseed rape; [16]
  PHYTOX (damage on oilseed rape crop): 7%
Oilseed rape; [17]
  PHYTOX (damage on oilseed rape crop): 0%
Oilseed rape; [18]
  PHYTOX (damage on oilseed rape crop): 0%
Oilseed rape; aminopyralid 15 g ai/ha, treatment A
  PHYTOX (damage on the oilseed rape crop): 0%
Oilseed rape; aminopyralid 15 g ai/ha, treatment B
  PHYTOX (damage on the oilseed rape crop): 0%
Oilseed rape; aminopyralid 30 g ai/ha, treatment A
  PHYTOX (damage on the oilseed rape crop): 0%
Oilseed rape; aminopyralid 30 g ai/ha, treatment B
  PHYTOX (damage on the oilseed rape crop): 0%
Oilseed rape; aminopyralid 50 g ai/ha, treatment A
  PHYTOX (damage on the oilseed rape crop): 0%
Oilseed rape; aminopyralid 50 g ai/ha, treatment B
  PHYTOX (damage on the oilseed rape crop): 0%
Galium aparine; [1]
  damage on GALAP: 67%
Galium aparine; [2]
  damage on GALAP: 77%
Galium aparine; [3]
  damage on GALAP: 86%
Galium aparine; [4]
  damage on GALAP: 72%
Galium aparine; [5]
  damage on GALAP: 78%
Galium aparine; [6]
  damage on GALAP: 82%
Galium aparine; [7]
  damage on GALAP: 92%
Galium aparine; [8]
  damage on GALAP: 96%
Galium aparine; [9]
  damage on GALAP: 96%
Galium aparine; [10]
  damage on GALAP: 72%
Galium aparine; [11]
  damage on GALAP: 78%
Galium aparine; [12]
  damage on GALAP: 86%
Galium aparine; [13]
  damage on GALAP: 99%
Galium aparine; [14]
  damage on GALAP: 99%
Galium aparine; [15]
  damage on GALAP: 100%
Galium aparine; [16]
  damage on GALAP: 87%
Galium aparine; [17]
  damage on GALAP: 87%
Galium aparine; [18]
  damage on GALAP: 89%
Galium aparine; [19]
  damage on GALAP: 88%
Galium aparine; [20]
  damage on GALAP: 87%
Galium aparine; [21]
  damage on GALAP: 93%
Galium aparine; [22]
  damage on GALAP: 91%
Galium aparine; [23]
  damage on GALAP: 100%
Galium aparine; [24]
  damage on GALAP: 93%
Papaver rhoeas; [1]
  damage on PAPRH: 93%
Papaver rhoeas; [2]
  damage on PAPRH: 93%
Papaver rhoeas; [3]
  damage on PAPRH: 96%
Papaver rhoeas; [4]
  damage on PAPRH: 72%
Papaver rhoeas; [5]
  damage on PAPRH: 75%
Papaver rhoeas; [6]
  damage on PAPRH: 96%
Papaver rhoeas; [7]
  damage on PAPRH: 98%
Papaver rhoeas; [8]
  damage on PAPRH: 95%
Papaver rhoeas; [9]
  damage on PAPRH: 99%
Papaver rhoeas; [10]
  damage on PAPRH: 72%
Papaver rhoeas; [11]
  damage on PAPRH: 80%
Papaver rhoeas; [12]
  damage on PAPRH: 96%
Papaver rhoeas; [13]
  damage on PAPRH: 100%
Papaver rhoeas; [14]
  damage on PAPRH: 100%
Papaver rhoeas; [15]
  damage on PAPRH: 100%
Papaver rhoeas; [16]
  damage on PAPRH: 80%
Papaver rhoeas; [17]
  damage on PAPRH: 85%
Papaver rhoeas; [18]
  damage on PAPRH: 97%
Papaver rhoeas; [19]
  damage on PAPRH: 97%
Papaver rhoeas; [20]
  damage on PAPRH: 97%
Papaver rhoeas; [21]
  damage on PAPRH: 98%
Papaver rhoeas; [22]
  damage on PAPRH: 100%
Papaver rhoeas; [23]
  damage on PAPRH: 100%
Papaver rhoeas; [24]
  damage on PAPRH: 98%
Sissimbrium officinale; [1]
  damage on SSYOF: 33%
Sissimbrium officinale; [2]
  damage on SSYOF: 0%
Sissimbrium officinale; [3]
  damage on SSYOF: 0%
Sissimbrium officinale; [4]
  damage on SSYOF: 53%
Sissimbrium officinale; [5]
  damage on SSYOF: 0%
Sissimbrium officinale; [6]
  damage on SSYOF: 0%
Sissimbrium officinale; [7]
  damage on SSYOF: 71%
Sissimbrium officinale; [8]
  damage on SSYOF: 25%
Sissimbrium officinale; [9]
  damage on SSYOF: 25%
Sissimbrium officinale; [10]
  damage on SSYOF: 60%
Sissimbrium officinale; [11]
  damage on SSYOF: 27%
Sissimbrium officinale; [12]
  damage on SSYOF: 27%
Sissimbrium officinale; [13]
  damage on SSYOF: 86%
Sissimbrium officinale; [14]
  damage on SSYOF: 50%
Sissimbrium officinale; [15]
  damage on SSYOF: 50%
Sissimbrium officinale; [16]
  damage on SSYOF: 72%
Sissimbrium officinale; [17]
  damage on SSYOF: 32%
Sissimbrium officinale; [18]
  damage on SSYOF: 32%
Sissimbrium officinale; [19]
  damage on SSYOF: 0%
Sissimbrium officinale; [20]
  damage on SSYOF: 0%
Sissimbrium officinale; [21]
  damage on SSYOF: 23%
Sissimbrium officinale; [22]
  damage on SSYOF: 50%
Sissimbrium officinale; [23]
  damage on SSYOF: 62%
Sissimbrium officinale; [24]
  damage on SSYOF: 52%
Sinapis alba; 15 g ai/ha, treatment A early post emergence
  damage on SINAL: 13%
Sinapis alba; 15 g ai/ha, treatment B post emergence
  damage on SINAL: 0%
Sinapis alba; 30 g ai/ha, treatment A early post emergence
  damage on SINAL: 50%
Sinapis alba; 30 g ai/ha, treatment B post emergence
  damage on SINAL: 0%
Sinapis alba; 50 g ai/ha, treatment A early post emergence
  damage on SINAL: 67%
Sinapis alba; 50 g ai/ha, treatment B post emergence
  damage on SINAL: 0%
Alopecurus myosuroides; [1]
  damage on ALOMY: 0%
Alopecurus myosuroides; [2]
  damage on ALOMY: 22%
Alopecurus myosuroides; [3]
  damage on ALOMY: 22%
Alopecurus myosuroides; [4]
  damage on ALOMY: 0%
Alopecurus myosuroides; [5]
  damage on ALOMY: 25%
Alopecurus myosuroides; [6]
  damage on ALOMY: 25%
Alopecurus myosuroides; [7]
  damage on ALOMY: 57%
Alopecurus myosuroides; [8]
  damage on ALOMY: 37%
Alopecurus myosuroides; [9]
  damage on ALOMY: 37%
Alopecurus myosuroides; [10]
  damage on ALOMY: 0%
Alopecurus myosuroides; [11]
  damage on ALOMY: 32%
Alopecurus myosuroides; [12]
  damage on ALOMY: 32%
Alopecurus myosuroides; [13]
  damage on ALOMY: 77%
Alopecurus myosuroides; [14]
  damage on ALOMY: 80%
Alopecurus myosuroides; [15]
  damage on ALOMY: 80%
Alopecurus myosuroides; [16]
  damage on ALOMY: 20%
Alopecurus myosuroides; [17]
  damage on ALOMY: 42%
Alopecurus myosuroides; [18]
  damage on ALOMY: 42%
Alopecurus myosuroides; [19]
  damage on ALOMY: 22%
Alopecurus myosuroides; [20]
  damage on ALOMY: 38%
Alopecurus myosuroides; [21]
  damage on ALOMY: 37%
Alopecurus myosuroides; [22]
  damage on ALOMY: 32%
Alopecurus myosuroides; [23]
  damage on ALOMY: 80%
Alopecurus myosuroides; [24]
  damage on ALOMY: 42%
